Data reported in publication PMC3624797 (Journal of Medicinal Chemistry, 2013).

Tests used:
[1] = Metabolic stability in mouse liver microsomes; format: in vitro ADME; conditions: for metabolic stability (in words): incubated with mouse liver microsomes
[2] = Metabolic stability in human liver microsomes; format: in vitro ADME
[3] = Metabolic stability in rat liver microsomes; format: in vitro ADME
[4] = Tolerability observed in rat PK studies; format: in vivo; conditions: rats; for hemolysis: dosed iv, most likely arising from the vehicle; for signs of toxicity: orally or ip at doses up to ∼20 mg/kg
in vivo = conditions: male, Sprague Dawley, rat, plasma
Chemical stability = format: physicochemical
Oral exposure in mice = format: in vivo, mouse; conditions: single oral dose 50 mg/kg, suspension in PEG400, after ∼5 h
[5] = Blood and plasma stability; format: in vitro ADME; conditions: rat blood and plasma, over 4 h at 37 °C
[6] = rat dosed intravenously

Structure (SMILES): CCOC(=O)C1=C(C)N/C(=C/c2cc(C)n(-c3ccc(CN(C)C)cc3)c2C)C1=O [Compound 8aa]
- metabolic stability (in words) [1]: slightly more stable

Structure (SMILES): CCOC(=O)C1=C(C)N/C(=C/c2ccn(-c3ccccc3C(F)(F)F)c2)C1=O [Compound 9a]
- metabolic stability (in words) [1]: even lower metabolic stability

Structure (SMILES): CCOC(=O)C1=C(C)N/C(=C/c2cc(C)n(-c3ccc(C(F)(F)F)cc3)c2C)C1=O [Compound 8b, Ethyl (5E)-5-[[2,5-Dimethyl-1-[4-(trifluoromethyl)phenyl]pyrrol-3-yl]methylene]-2-methyl-4-oxo-1H-pyrrole-3-carboxylate]
- metabolites detected ([1]; mouse liver microsomes (Table 6)): none
- half-life at 1 μM [2]: 0.583 h
- metabolites detected [2]: none
- metabolites detected [3]: none
- hemolysis [4]: slight degree of hemolysis
- signs of toxicity [4]: No sign of toxicity
- half-life (in vivo): ≥ 8 h

Structure (SMILES): CC1=CC(=O)/C(=C\c2cc(C)n(-c3ccccc3C(F)(F)F)c2C)N1 [Compound 10d]
- metabolic stability (in words) [1]: slightly more stable

Structure (SMILES): CCOC(=O)C1=C(C)N/C(=C/c2ccn(-c3ccc(C(F)(F)F)cc3)c2)C1=O [Compound 9b]
- metabolic stability (in words) [1]: even lower metabolic stability

Structure (SMILES): CCOC(=O)C1=C(C)NC(Cc2cc(C)n(-c3ccccc3C(F)(F)F)c2C)C1=O (stereo not shown) [Compound 11b]
- chemical stability (in words) (Chemical stability): less stable chemically

Structure (SMILES): CCOC(=O)C1=C(C)N/C(=C/c2cc(C)n(-c3ccccc3C(F)(F)F)c2C)C1=O [Compound 8a, Ethyl (5E)-5-[[2,5-dimethyl-1-[2-(trifluoromethyl)phenyl]pyrrol-3-yl]methylene]-2-methyl-4-oxo-1H-pyrrole-3-carboxylate]
- metabolites detected [2]: none
- plasma levels (Oral exposure in mice): < 10 nM
- hydrolyzed to the acid 10c [5]: ~25%
- hemolysis [4]: slight degree of hemolysis
- signs of toxicity [4]: No sign of toxicity
- chemical stability (in words) (Chemical stability): fairly resistant to chemical hydrolysis
- glutathione conjugation adducts in urine [6]: no adducts resulting from conjugation with glutathione were detected
- half-life (in vivo): ≥ 8 h

Structure (SMILES): CCOC(=O)C1=C(C)N/C(=C/c2cc(CC)n(-c3ccccc3C(F)(F)F)c2CC)C1=O [Compound 9c, Ethyl (5E)-5-[[2,5-Diethyl-1-[2-(trifluoromethyl)phenyl]pyrrol-3-yl]methylene]-2-methyl-4-oxo-1H-pyrrole-3-carboxylate]
- metabolic stability (in words) [1]: even lower metabolic stability

Structure (SMILES): CCOC(=O)C1=C(C)N/C(=C/c2cc(C)n(-c3ccc(N4CCOCC4)cc3)c2C)C1=O [Compound 8u]
- metabolic stability (in words) [1]: slightly more stable
